Patent US20240166652A1, “MODULATORS OF THE INTEGRATED STRESS PATHWAY” (Calico Life Sciences LLC, priority 2017, published 2024)

What was measured:
[1] = biological target: T1, eIF2B mutant B3 H341Q (HEK293T ATF4-Fluc cells) (Homo sapiens, UniProt P49770+Q9NR50+Q9UI10, H341Q); test: ATF4-Luc assay, VWMD eIF2B mutant B3 H341Q; assay type: cell-based; details: 1 μg/mL tunicamycin, 7 hours
T1 construct: endogenous in cells
Procedure: (§1) In order to test exemplary compounds of the invention in a cellular context, a stable VWMD cell line was first constructed. The ATF4 reporter was prepared by fusing the human full-length ATF4 5′-UTR (NCBI Accession No. BC022088.2) in front of the firefly luciferase (FLuc) coding sequence lacking the initiator methionine as described in Sidrauski et al (eLife 2013). The construct was used to produce recombinant retroviruses using standard methods and the resulting viral supernatant was used to transduce HEK293T cells, which were then subsequently selected with puromycin to generate a stable cell line.
(§2) HEK293T cells carrying the ATF4 luciferase reporter were plated on polylysine coated 384-well plates (Greiner Bio-one) at 30,000 cells per well. Cells were treated the next day with 1 μg/mL tunicamycin and 200 nM of a compound of Formula (I) for 7 hours. Luminescence was measured using One Glo (Promega) as specified by the manufacturer. Cells were maintained in DMEM with L-glutamine supplemented with 10% heat-inactivated FBS (Gibco) and Antibiotic-Antimycotic solution (Gibco).
(§3) VWMD mutations were introduced into the genome of the HEK293T ATF4-Fluc stable cell lines by using Gene Art CRISPR nuclease vector with OFP Reporter kit (ThermoFisher; see Table 3 below). Guide RNAs were designed using the CRISPR Design Tool (http://crispr.mit.edu) and ligated into the CRISPR OFP Nuclease Vector. To obtain homology directed repair (HDR) incorporating VWMD point mutations in the genome, 150 bp ssDNA ultramer oligos were synthesized by Integrated DNA Technologies containing specific mutations of interest. In addition to the VWMD mutations, the ssDNA HDR templates contained a silent mutation to the PAM site of the CRISPR gRNA sequence (to avoid further Cas9 cutting) and 75 bp of homology on each side of the mutation.
(§4) HEK293T ATF4-Fluc cells were transfected with 500 ng of the CRISPR OFP Nuclease Vector and 1 uL of 10 μM ssDNA HDR template using lipofectamine 3000 (ThermoFisher) or SF Cell Line 4D-nucleofector X Kit (Lonza) according to the manufacturer's instructions. After 2-3 days of recovery, single cells were sorted for positive OFP expression on a FACS Aria II (BD Biosciences) into wells of a 96 well plate and allowed to recover for 1-2 weeks.
(§5) The resulting clones were surveyed for CRISPR editing and HDR by harvesting the genomic DNA with the PureLink Genomic DNA kit (ThermoFisher), amplifying a […] locus near the editing site, and sequencing the amplicon. […] Typical clones obtained were hemizygous for the VWMD point mutation, with one or two alleles harboring the desired mutation, and the remaining alleles knocked out (edited to produce a premature stop codon). […]

[2] = biological target: T2, eIF2B mutant B4 R357W (HEK293T ATF4-Fluc cells) (Homo sapiens, UniProt P49770+Q9UI10, R357W); test: ATF4-Luc assay, VWMD eIF2B mutant B4 R357W; assay type: cell-based; details: 1 μg/mL tunicamycin, 7 hours
T2 construct: endogenous in cells
Procedure: as §1, §2, §3, §4, §5

[3] = test system: ATF4 luciferase reporter in HEK293T cells; test: ATF4-Luc assay (ATF4 luciferase reporter, tunicamycin-treated HEK293T cells); assay type: cell-based, human; details: Homo sapiens, HEK-293T; HEK293T cells carrying the ATF4 luciferase reporter, 1 μg/mL tunicamycin, 7 hours
[4] = biological target: T3, eIF2B mutant B4 R483W (HEK293T ATF4-Fluc cells) (Homo sapiens, UniProt P49770+Q9UI10, R483W); test: ATF4-Luc assay, VWMD eIF2B mutant B4 R483W; assay type: cell-based; details: 1 μg/mL tunicamycin, 7 hours
T3 construct: endogenous in cells
Procedure: as §1, §2, §3, §4, §5

[5] = biological target: T4, eIF2B mutant B3 I346T (HEK293T ATF4-Fluc cells) (Homo sapiens, UniProt P49770+Q9NR50+Q9UI10, I346T); test: ATF4-Luc assay, VWMD eIF2B mutant B3 I346T; assay type: cell-based; details: 1 μg/mL tunicamycin, 7 hours
T4 construct: endogenous in cells
Procedure: as §1, §2, §3, §4, §5

[6] = biological target: T5, eIF2B mutant B1 V183F (HEK293T ATF4-Fluc cells) (Homo sapiens, UniProt P49770+Q14232+Q9UI10, V183F); test: ATF4-Luc assay, VWMD eIF2B mutant B1 V183F; assay type: cell-based; details: 1 μg/mL tunicamycin, 7 hours
T5 construct: endogenous in cells
Procedure: as §1, §2, §3, §4, §5

[7] = biological target: T6, eIF2B mutant B5 R195H (HEK293T ATF4-Fluc cells) (Homo sapiens, UniProt P49770+Q13144+Q9UI10, R195H); test: ATF4-Luc assay, VWMD eIF2B mutant B5 R195H; assay type: cell-based; details: 1 μg/mL tunicamycin, 7 hours
T6 construct: endogenous in cells
Procedure: as §1, §2, §3, §4, §5

[8] = biological target: T7, eIF2B mutant B5 R113H (HEK293T ATF4-Fluc cells) (Homo sapiens, UniProt P49770+Q13144+Q9UI10, R113H); test: ATF4-Luc assay, VWMD eIF2B mutant B5 R113H; assay type: cell-based; details: 1 μg/mL tunicamycin, 7 hours
T7 construct: endogenous in cells
Procedure: as §1, §2, §3, §4, §5

T3 sequence (Q9UI10 whole entry R483W): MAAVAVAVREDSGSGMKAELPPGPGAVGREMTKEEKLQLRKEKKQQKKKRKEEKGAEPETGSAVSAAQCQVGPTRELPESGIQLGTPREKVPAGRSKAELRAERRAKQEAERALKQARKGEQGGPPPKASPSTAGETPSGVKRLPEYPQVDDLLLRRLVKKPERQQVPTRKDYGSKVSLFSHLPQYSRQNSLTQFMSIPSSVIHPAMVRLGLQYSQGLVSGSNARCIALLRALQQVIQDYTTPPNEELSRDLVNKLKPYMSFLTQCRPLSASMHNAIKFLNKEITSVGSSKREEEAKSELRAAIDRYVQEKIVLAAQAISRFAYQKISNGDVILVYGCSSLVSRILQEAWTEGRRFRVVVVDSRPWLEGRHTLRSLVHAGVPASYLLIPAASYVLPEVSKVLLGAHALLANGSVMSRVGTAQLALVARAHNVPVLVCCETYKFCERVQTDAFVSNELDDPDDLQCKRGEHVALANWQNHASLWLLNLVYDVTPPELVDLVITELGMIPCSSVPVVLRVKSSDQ
T3 sequence (Q14232 whole entry partner): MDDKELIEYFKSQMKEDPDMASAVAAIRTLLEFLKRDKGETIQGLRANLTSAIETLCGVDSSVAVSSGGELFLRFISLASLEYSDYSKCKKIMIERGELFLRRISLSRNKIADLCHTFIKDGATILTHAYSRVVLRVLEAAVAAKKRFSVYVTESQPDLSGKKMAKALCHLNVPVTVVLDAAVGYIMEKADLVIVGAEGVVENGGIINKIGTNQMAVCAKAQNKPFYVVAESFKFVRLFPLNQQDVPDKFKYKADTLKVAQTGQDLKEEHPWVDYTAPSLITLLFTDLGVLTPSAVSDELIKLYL
T3 sequence (P49770 whole entry): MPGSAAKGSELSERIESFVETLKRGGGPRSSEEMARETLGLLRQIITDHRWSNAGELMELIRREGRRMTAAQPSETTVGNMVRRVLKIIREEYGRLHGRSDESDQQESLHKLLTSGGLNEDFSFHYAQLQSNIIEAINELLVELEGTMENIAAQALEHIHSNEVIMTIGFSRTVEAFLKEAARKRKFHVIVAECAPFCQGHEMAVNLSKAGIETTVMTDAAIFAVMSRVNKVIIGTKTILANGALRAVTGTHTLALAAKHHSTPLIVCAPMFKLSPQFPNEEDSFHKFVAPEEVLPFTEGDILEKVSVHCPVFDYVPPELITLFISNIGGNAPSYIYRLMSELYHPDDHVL
T3 sequence (Q9NR50 whole entry partner): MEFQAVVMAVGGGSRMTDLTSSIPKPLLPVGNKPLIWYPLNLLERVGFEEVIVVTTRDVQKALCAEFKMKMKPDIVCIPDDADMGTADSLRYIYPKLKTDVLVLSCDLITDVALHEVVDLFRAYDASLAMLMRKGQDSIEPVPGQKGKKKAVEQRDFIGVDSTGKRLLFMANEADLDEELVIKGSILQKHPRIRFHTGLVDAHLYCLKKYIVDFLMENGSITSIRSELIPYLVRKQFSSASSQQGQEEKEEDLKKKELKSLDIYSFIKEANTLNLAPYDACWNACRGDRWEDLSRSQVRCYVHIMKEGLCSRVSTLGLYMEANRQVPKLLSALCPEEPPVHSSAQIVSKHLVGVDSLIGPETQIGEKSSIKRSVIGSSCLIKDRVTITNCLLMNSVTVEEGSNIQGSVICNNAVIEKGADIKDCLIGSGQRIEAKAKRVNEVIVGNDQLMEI
T3 sequence (Q13144 whole entry partner): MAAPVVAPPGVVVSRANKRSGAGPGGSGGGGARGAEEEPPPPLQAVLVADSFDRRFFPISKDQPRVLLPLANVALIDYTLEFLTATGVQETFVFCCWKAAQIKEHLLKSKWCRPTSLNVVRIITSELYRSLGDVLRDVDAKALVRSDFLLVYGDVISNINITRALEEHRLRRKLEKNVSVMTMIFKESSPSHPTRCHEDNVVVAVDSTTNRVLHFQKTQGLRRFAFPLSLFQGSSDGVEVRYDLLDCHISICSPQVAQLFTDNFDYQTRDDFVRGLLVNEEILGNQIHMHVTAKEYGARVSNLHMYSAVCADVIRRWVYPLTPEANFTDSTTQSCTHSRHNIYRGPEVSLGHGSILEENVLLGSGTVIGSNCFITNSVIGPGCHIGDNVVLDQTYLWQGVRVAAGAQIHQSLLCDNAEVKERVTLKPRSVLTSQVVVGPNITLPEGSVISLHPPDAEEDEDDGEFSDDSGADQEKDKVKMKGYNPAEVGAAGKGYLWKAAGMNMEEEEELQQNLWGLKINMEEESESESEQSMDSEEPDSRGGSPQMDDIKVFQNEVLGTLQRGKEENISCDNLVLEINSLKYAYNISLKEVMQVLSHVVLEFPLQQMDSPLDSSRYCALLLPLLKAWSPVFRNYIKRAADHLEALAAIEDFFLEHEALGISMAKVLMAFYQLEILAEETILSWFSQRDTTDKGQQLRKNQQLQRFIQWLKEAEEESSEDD
T6 sequence (Q13144 whole entry R195H): as the sequence (Q13144 whole entry partner) above, with R195H counted along it
T6 sequence (Q14232 whole entry partner): as the sequence (Q14232 whole entry partner) above
T6 sequence (P49770 whole entry): as the sequence (P49770 whole entry) above
T6 sequence (Q9NR50 whole entry partner): as the sequence (Q9NR50 whole entry partner) above
T6 sequence (Q9UI10 whole entry): as the sequence (Q9UI10 whole entry R483W) above, with W483R counted along it
T1 sequence (Q9NR50 whole entry H341Q): as the sequence (Q9NR50 whole entry partner) above, with H341Q counted along it
T1 sequence (Q14232 whole entry partner): as the sequence (Q14232 whole entry partner) above
T1 sequence (P49770 whole entry): as the sequence (P49770 whole entry) above
T1 sequence (Q9UI10 whole entry): as the sequence (Q9UI10 whole entry R483W) above, with W483R counted along it
T1 sequence (Q13144 whole entry partner): as the sequence (Q13144 whole entry partner) above
T7 sequence (Q13144 whole entry R113H): as the sequence (Q13144 whole entry partner) above, with R113H counted along it
T7 sequence (Q14232 whole entry partner): as the sequence (Q14232 whole entry partner) above
T7 sequence (P49770 whole entry): as the sequence (P49770 whole entry) above
T7 sequence (Q9NR50 whole entry partner): as the sequence (Q9NR50 whole entry partner) above
T7 sequence (Q9UI10 whole entry): as the sequence (Q9UI10 whole entry R483W) above, with W483R counted along it
T2 sequence (Q9UI10 whole entry R357W): as the sequence (Q9UI10 whole entry R483W) above, with R357W, W483R counted along it
T2 sequence (Q14232 whole entry partner): as the sequence (Q14232 whole entry partner) above
T2 sequence (P49770 whole entry): as the sequence (P49770 whole entry) above
T2 sequence (Q9NR50 whole entry partner): as the sequence (Q9NR50 whole entry partner) above
T2 sequence (Q13144 whole entry partner): as the sequence (Q13144 whole entry partner) above
T4 sequence (Q9NR50 whole entry I346T): as the sequence (Q9NR50 whole entry partner) above, with I346T counted along it
T4 sequence (Q14232 whole entry partner): as the sequence (Q14232 whole entry partner) above
T4 sequence (P49770 whole entry): as the sequence (P49770 whole entry) above
T4 sequence (Q9UI10 whole entry): as the sequence (Q9UI10 whole entry R483W) above, with W483R counted along it
T4 sequence (Q13144 whole entry partner): as the sequence (Q13144 whole entry partner) above
T5 sequence (Q14232 whole entry V183F): as the sequence (Q14232 whole entry partner) above, with V183F counted along it
T5 sequence (P49770 whole entry): as the sequence (P49770 whole entry) above
T5 sequence (Q9NR50 whole entry partner): as the sequence (Q9NR50 whole entry partner) above
T5 sequence (Q9UI10 whole entry): as the sequence (Q9UI10 whole entry R483W) above, with W483R counted along it
T5 sequence (Q13144 whole entry partner): as the sequence (Q13144 whole entry partner) above

Row | EC50 [1] | EC50 [2] | EC50 [4] | EC50 [5] | EC50 [6] | EC50 [7] | EC50 [8] | Compound | EC50 [3]
1 | < 0.01 µM | < 0.01 µM | < 0.01 µM | < 0.01 µM | < 0.01 µM | < 0.01 µM | < 0.01 µM | O=C(COc1ccc(Cl)c(F)c1)NC12CCC(NC(=O)COc3ccc(Cl)c(F)c3)(CC1)[C@@H](O)C2 (single isomer, unassigned) [Compound 297] | < 0.01 µM
2 | < 0.01 µM | < 0.01 µM | < 0.01 µM | < 0.01 µM | < 0.01 µM | < 0.01 µM | < 0.01 µM | O=C(COc1ccc(Cl)cc1)NC12CC(NC(=O)COc3ccc(Cl)cc3)(C1)C2 [Compound 112, N,N′-(bicyclo[1.1.1]pentane-1,3-diyl)bis[2-(4-chlorophenoxy)acetamide]] | < 0.01 µM
3 | 0.01 to 0.05 µM | 0.01 to 0.05 µM | < 0.01 µM | < 0.01 µM | 0.05 to 0.25 µM | 0.01 to 0.05 µM | 0.01 to 0.05 µM | O=C(COc1ccc(C(F)(F)F)nc1)NC12CC(NC(=O)COc3ccc(Cl)c(F)c3)(C1)C2 [Compound 175, 2-(4-chloro-3-fluorophenoxy)-N-[3-(2-{[6-(trifluoromethyl)pyridin-3-yl]oxy}acetamido)bicyclo[1.1.1]pentan-1-yl]acetamide] | < 0.01 µM
4 | 0.5 to 2 µM | 0.5 to 2 µM | > 2 µM | 0.5 to 2 µM | > 2 µM | 0.5 to 2 µM | > 2 µM | Cc1noc(COCC(=O)NC23CC(NC(=O)COc4ccc(Cl)c(F)c4)(C2)C3)n1 [Compound 217, 2-(4-chloro-3-fluorophenoxy)-N-(3-{2-[(3-methyl-1,2,4-oxadiazol-5-yl)methoxy]acetamido}bicyclo[1.1.1]pentan-1-yl)acetamide] | 0.5 to 2 µM
5 |  |  |  |  |  |  |  | O=C(COc1ccc(S(F)(F)(F)(F)F)cc1)NC12CCC(NC(=O)COc3ccc(Cl)c(F)c3)(CC1)[C@@H](O)C2 [Compound 839, 2-(4-chloro-3-fluorophenoxy)-N-[(2S)-2-hydroxy-4-{2-[4-(pentafluoro-lambda^6-sulfanyl)phenoxy]acetamido}bicyclo[2.2.2]octan-1-yl]acetamide] | < 0.01 µM
6 |  |  |  |  |  |  |  | O=C(COc1ccccc1)NC12CCC(NC(=O)COc3ccc(Cl)c(F)c3)(CC1)[C@@H](O)C2 [Compound 840, 2-(4-chloro-3-fluorophenoxy)-N-[(2S)-2-hydroxy-4-(2-phenoxyacetamido)bicyclo[2.2.2]octan-1-yl]acetamide] | < 0.01 µM
7 |  |  |  |  |  |  |  | Cc1cc(OCC(=O)NC23CCC(NC(=O)COc4ccc(C(F)(F)F)c(F)c4)(CC2)C[C@@H]3O)ccc1Cl [Compound 841, 2-(4-chloro-3-methylphenoxy)-N-[(2S)-4-{2-[3-fluoro-4-(trifluoromethyl)phenoxy]acetamido}-2-hydroxybicyclo[2.2.2]octan-1-yl]acetamide] | < 0.01 µM
8 |  |  |  |  |  |  |  | O=C(COc1ccc(C(F)(F)F)c(F)c1)NC12CCC(NC(=O)COc3ccc(F)c(F)c3)(CC1)[C@@H](O)C2 [Compound 842, 2-(3,4-difluorophenoxy)-N-[(2S)-4-{2-[3-fluoro-4-(trifluoromethyl)phenoxy]acetamido}-2-hydroxybicyclo[2.2.2]octan-1-yl]acetamide] | < 0.01 µM
9 |  |  |  |  |  |  |  | O=C(COc1ccc(C(F)(F)F)c(F)c1)NC12CCC(NC(=O)COc3ccc(Cl)cc3)(CC1)[C@@H](O)C2 [Compound 843, 2-(4-chlorophenoxy)-N-[(2S)-4-{2-[3-fluoro-4-(trifluoromethyl)phenoxy]acetamido}-2-hydroxybicyclo[2.2.2]octan-1-yl]acetamide] | < 0.01 µM
10 |  |  |  |  |  |  |  | O=C(COc1ccc(C(F)(F)F)c(F)c1)NC12CCC(NC(=O)COc3ccc(F)cc3)(CC1)[C@@H](O)C2 [Compound 844, 2-(4-fluorophenoxy)-N-[(2S)-4-{2-[3-fluoro-4-(trifluoromethyl)phenoxy]acetamido}-2-hydroxybicyclo[2.2.2]octan-1-yl]acetamide] | < 0.01 µM
11 |  |  |  |  |  |  |  | O=C(COc1ccc(F)c(C(F)(F)F)c1)NC12CCC(NC(=O)COc3ccc(F)c(F)c3)(CC1)[C@@H](O)C2 [Compound 845, 2-(3,4-difluorophenoxy)-N-[(2S)-4-{2-[4-fluoro-3-(trifluoromethyl)phenoxy]acetamido}-2-hydroxybicyclo[2.2.2]octan-1-yl]acetamide] | < 0.01 µM
12 |  |  |  |  |  |  |  | O=C(COc1ccc(F)c(C(F)(F)F)c1)NC12CCC(NC(=O)COc3ccc(Cl)cc3)(CC1)[C@@H](O)C2 [Compound 846, 2-(4-chlorophenoxy)-N-[(2S)-4-{2-[4-fluoro-3-(trifluoromethyl)phenoxy]acetamido}-2-hydroxybicyclo[2.2.2]octan-1-yl]acetamide] | < 0.01 µM
13 |  |  |  |  |  |  |  | O=C(COc1ccc(F)c(C(F)(F)F)c1)NC12CCC(NC(=O)COc3ccc(F)cc3)(CC1)[C@@H](O)C2 [Compound 847, 2-(4-fluorophenoxy)-N-[(2S)-4-{2-[4-fluoro-3-(trifluoromethyl)phenoxy]acetamido}-2-hydroxybicyclo[2.2.2]octan-1-yl]acetamide] | < 0.01 µM
14 |  |  |  |  |  |  |  | O=C(COc1ccc(F)c(C(F)(F)F)c1)NC12CCC(NC(=O)COc3ccc(Cl)c(F)c3)(CC1)[C@@H](O)C2 [Compound 848, 2-(4-chloro-3-fluorophenoxy)-N-[(2S)-4-{2-[4-fluoro-3-(trifluoromethyl)phenoxy]acetamido}-2-hydroxybicyclo[2.2.2]octan-1-yl]acetamide] | < 0.01 µM
15 |  |  |  |  |  |  |  | O=C(COc1ccc(C(F)(F)F)c(F)c1)NC12CCC(NC(=O)COc3ccc(Cl)c(F)c3)(CC1)[C@@H](O)C2 [Compound 849, 2-(4-chloro-3-fluorophenoxy)-N-[(2S)-4-{2-[3-fluoro-4-(trifluoromethyl)phenoxy]acetamido}-2-hydroxybicyclo[2.2.2]octan-1-yl]acetamide] | < 0.01 µM
